Laboratory results published in patent US20230085307A1, “PYRIDAZINONE COMPOUND AND HERBICIDE” (NISSAN CHEMICAL CORPORATION, priority 2019, published 2023).

How the values were obtained:
[1] = tested on: persian speedwell; assay: Test Example 4: herbicidal effect by soil treatment (Table 19, symbol R); format: in vivo, Persian speedwell (Veronica persica); conditions: amount of applied herbicide 320 g/ha
Outline: (§1)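 Applied as a water-diluted emulsion, the compound was sprayed onto soil covering newly sown seeds. Evaluation came three weeks after application, in a greenhouse held at 25° C. to 30° C.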

[2] = tested on: chickweed; assay: Test Example 5: herbicidal effect by foliage application, plastic box (Table 20, symbol P); format: in vivo, common chickweed (Stellaria media); conditions: amount of applied herbicide 320 g/ha; foliage application after 14-day growth; evaluated three weeks after application
Outline: (§2)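 Sow seeds spot-wise in sterilized diluvial soil; cover with ~1.5 cm soil. Grow 14 days in greenhouse, 25° C. to 30° C. Spray foliage with emulsion diluted to predetermined amount. Rate effect after 3 weeks.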

[3] = tested on: redroot pigweed; assay: Test Example 5: herbicidal effect by foliage application, plastic box (Table 20, symbol N); format: in vivo, redroot pigweed (Amaranthus retroflexus); conditions: amount of applied herbicide 320 g/ha; foliage application after 14-day growth; evaluated three weeks after application
Outline: as §2

[4] = tested on: barnyard grass; assay: Test Example 3: herbicidal effect by foliage application, Wagner pot (Table 18, symbol H); format: in vivo, barnyard grass (Echinochloa crus-galli); conditions: 320 g/ha
Outline: (§3)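 Plants were sown in alluvial soil held under 0.1–0.5 cm standing water and grown 14 days in a greenhouse at 25–30 °C. An emulsifiable formulation, water-diluted to the set dose, was then sprayed onto the foliage, and effects were scored three weeks later using previously defined criteria.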

[5] = tested on: velvetleaf; assay: Test Example 5: herbicidal effect by foliage application, plastic box (Table 20, symbol M); format: in vivo, velvetleaf (Abutilon theophrasti)
Outline: as §2

[6] = tested on: wild oat; assay: Test Example 4: herbicidal effect by soil treatment (Table 19, symbol I); format: in vivo, wild oat (Avena fatua); conditions: amount of applied herbicide 320 g/ha
Outline: as §1

[7] = tested on: redroot pigweed; assay: Test Example 4: herbicidal effect by soil treatment (Table 19, symbol N); format: in vivo, redroot pigweed (Amaranthus retroflexus); conditions: amount of applied herbicide 320 g/ha
Outline: as §1

[8] = tested on: lambsquarters; assay: Test Example 4: herbicidal effect by soil treatment (Table 19, symbol O); format: in vivo, lambsquarters (Chenopodium album); conditions: amount of applied herbicide 320 g/ha
Outline: as §1

[9] = tested on: windgrass; assay: Test Example 5: herbicidal effect by foliage application, plastic box (Table 20, symbol L); format: in vivo, windgrass (Apera spica-venti)
Outline: as §2

[10] = tested on: blackgrass; assay: Test Example 4: herbicidal effect by soil treatment (Table 19, symbol J); format: in vivo, blackgrass (Alopecurus myosuroides); conditions: amount of applied herbicide 320 g/ha
Outline: as §1

[11] = tested on: southern crabgrass; assay: Test Example 4: herbicidal effect by soil treatment (Table 19, symbol F); format: in vivo, southern crabgrass (Digitaria ciliaris); conditions: amount of applied herbicide 320 g/ha
Outline: as §1

[12] = tested on: persian speedwell; assay: Test Example 5: herbicidal effect by foliage application, plastic box (Table 20, symbol R); format: in vivo, Persian speedwell (Veronica persica)
Outline: as §2

[13] = tested on: Italian ryegrass; assay: Test Example 4: herbicidal effect by soil treatment (Table 19, symbol K); format: in vivo, Italian ryegrass (Lolium multiflorum); conditions: amount of applied herbicide 320 g/ha
Outline: as §1

[14] = tested on: wild oat; assay: Test Example 5: herbicidal effect by foliage application, plastic box (Table 20, symbol I); format: in vivo, wild oat (Avena fatua)
Outline: as §2

[15] = tested on: Chinese sprangletop; assay: Test Example 3: herbicidal effect by foliage application, Wagner pot (Table 18, symbol D); format: in vivo, chinese sprangletop (Leptochloa chinensis); conditions: 320 g/ha
Outline: as §3

[16] = tested on: green foxtail; assay: Test Example 4: herbicidal effect by soil treatment (Table 19, symbol G); format: in vivo, green foxtail (Setaria viridis); conditions: amount of applied herbicide 320 g/ha
Outline: as §1

[17] = tested on: Italian ryegrass; assay: Test Example 5: herbicidal effect by foliage application, plastic box (Table 20, symbol K); format: in vivo, Italian ryegrass (Lolium multiflorum)
Outline: as §2

[18] = tested on: barnyard grass; assay: Test Example 5: herbicidal effect by foliage application, plastic box (Table 20, symbol H); format: in vivo, barnyard grass (Echinochloa crus-galli)
Outline: as §2

[19] = tested on: windgrass; assay: Test Example 4: herbicidal effect by soil treatment (Table 19, symbol L); format: in vivo, windgrass (Apera spica-venti); conditions: amount of applied herbicide 320 g/ha
Outline: as §1

[20] = tested on: false cleavers; assay: Test Example 5: herbicidal effect by foliage application, plastic box (Table 20, symbol Q); format: in vivo, false cleavers (Galium spurium)
Outline: as §2

[21] = tested on: chickweed; assay: Test Example 4: herbicidal effect by soil treatment (Table 19, symbol P); format: in vivo, common chickweed (Stellaria media); conditions: amount of applied herbicide 320 g/ha
Outline: as §1

[22] = tested on: rice flat sedge; assay: Test Example 3: herbicidal effect by foliage application, Wagner pot (Table 18, symbol E); format: in vivo, rice flat sedge (Cyperus iria); conditions: 320 g/ha
Outline: as §3

[23] = tested on: southern crabgrass; assay: Test Example 5: herbicidal effect by foliage application, plastic box (Table 20, symbol F); format: in vivo, southern crabgrass (Digitaria ciliaris)
Outline: as §2

[24] = tested on: barnyard grass; assay: Test Example 4: herbicidal effect by soil treatment (Table 19, symbol H); format: in vivo, barnyard grass (Echinochloa crus-galli); conditions: amount of applied herbicide 320 g/ha
Outline: as §1

[25] = tested on: velvetleaf; assay: Test Example 4: herbicidal effect by soil treatment (Table 19, symbol M); format: in vivo, velvetleaf (Abutilon theophrasti); conditions: amount of applied herbicide 320 g/ha
Outline: as §1

[26] = tested on: blackgrass; assay: Test Example 5: herbicidal effect by foliage application, plastic box (Table 20, symbol J); format: in vivo, blackgrass (Alopecurus myosuroides)
Outline: as §2

[27] = tested on: lambsquarters; assay: Test Example 5: herbicidal effect by foliage application, plastic box (Table 20, symbol O); format: in vivo, lambsquarters (Chenopodium album); conditions: amount of applied herbicide 320 g/ha; foliage application after 14-day growth; evaluated three weeks after application
Outline: as §2

[28] = tested on: green foxtail; assay: Test Example 5: herbicidal effect by foliage application, plastic box (Table 20, symbol G); format: in vivo, green foxtail (Setaria viridis)
Outline: as §2

[29] = tested on: late watergrass; assay: Test Example 1: herbicidal activity, application before weed generation under submerged conditions (Table 16, symbol A); format: in vivo, late watergrass (Echinochloa oryzicola); conditions: amount of applied herbicide 320 g/ha
Outline: (§4)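 Emulsion formulation, water-diluted to set dose, was put onto the flooded surface (4 cm depth, alluvial soil) the same day weeds were sown and 2.5-leaf rice transplanted. After 3 weeks at 25-30 °C under glass, each species was rated 0 (≤5% kill) to 5 (≥90% kill).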

[30] = tested on: oval-leafed pondweed; assay: Test Example 1: herbicidal activity, application before weed generation under submerged conditions (Table 16, symbol C); format: in vivo, oval-leafed pondweed (Monochoria vaginalis); conditions: amount of applied herbicide 320 g/ha
Outline: as §4

[31] = tested on: Japanese bulrush; assay: Test Example 1: herbicidal activity, application before weed generation under submerged conditions (Table 16, symbol B); format: in vivo, Japanese bulrush (Schoenoplectus juncoides); conditions: amount of applied herbicide 320 g/ha
Outline: as §4

[32] = amount of applied herbicide 320 g/ha, foliage application after 14-day growth, evaluated three weeks after application
[33] = foliage application, 320 g/ha, three weeks after application

Q: Which “R: persian speedwell, herbicidal effect grade” value [1] does the source give for `COc1ccc(-c2sc3cc(F)c(F)cc3c2-c2c(O)c(C)nn(C)c2=O)cc1` [5-014] here?
A: Its value is 5 (Herbicidal rate of 90% or more (almost completely withered)).

Q: And the “Herbicidal effect by foliage application, P: chickweed” value [2]?
A: The value was 5 (Herbicidal rate of 90% or more (almost completely withered)).

Q: What about the “Herbicidal effect by foliage application, N: redroot pigweed” value [3] of the same compound?
A: The value was 5 (Herbicidal rate of 90% or more (almost completely withered)).

Q: What about the “herbicidal effect on barnyard grass (H)” value [4] of the same compound?
A: Its value is 4 (Herbicidal rate of 70% or more and less than 90%).

Q: What about the “Herbicidal effect by foliage application, M: velvetleaf” value [5, 32] of the same compound?
A: Its value is 5 (Herbicidal rate of 90% or more (almost completely withered)).

Q: And the “I: wild oat, herbicidal effect grade” value [6]?
A: The value was 0 (Herbicidal rate of 5% or less (almost no effect)).

Q: What about the “N: redroot pigweed, herbicidal effect grade” value [7] of the same compound?
A: Its value is 5 (Herbicidal rate of 90% or more (almost completely withered)).

Q: And the “O: lambsquarters, herbicidal effect grade” value [8]?
A: Its value is 5 (Herbicidal rate of 90% or more (almost completely withered)).

Q: And the “Herbicidal effect by foliage application, L: windgrass” value [9, 32]?
A: The value was 0 (Herbicidal rate of 5% or less (almost no effect)).

Q: What about the “J: blackgrass, herbicidal effect grade” value [10] of the same compound?
A: Its value is 0 (Herbicidal rate of 5% or less (almost no effect)).

Q: What about the “F: southern crabgrass, herbicidal effect grade” value [11] of the same compound?
A: The value was 0 (Herbicidal rate of 5% or less (almost no effect)).

Q: What about the “Herbicidal effect by foliage application, R: persian speedwell” value [12, 32] of the same compound?
A: Its value is 5 (Herbicidal rate of 90% or more (almost completely withered)).

Q: What about the “K: Italian ryegrass, herbicidal effect grade” value [13] of the same compound?
A: Its value is 0 (Herbicidal rate of 5% or less (almost no effect)).

Q: What about the “Herbicidal effect by foliage application, I: wild oat” value [14, 32] of the same compound?
A: The value was 0 (Herbicidal rate of 5% or less (almost no effect)).

Q: What about the “herbicidal effect on Chinese sprangletop (D)” value [15] of the same compound?
A: The value was 0 (Herbicidal rate of 5% or less (almost no effect)).

Q: What about the “G: green foxtail, herbicidal effect grade” value [16] of the same compound?
A: The value was 1 (Herbicidal rate of 5% or more and less than 20%).

Q: And the “Herbicidal effect by foliage application, K: Italian ryegrass” value [17, 32]?
A: The value was 4 (Herbicidal rate of 70% or more and less than 90%).

Q: What about the “Herbicidal effect by foliage application, H: barnyard grass” value [18, 32] of the same compound?
A: Its value is 2 (Herbicidal rate of 20% or more and less than 40%).

Q: And the “L: windgrass, herbicidal effect grade” value [19]?
A: The value was 0 (Herbicidal rate of 5% or less (almost no effect)).

Q: And the “Herbicidal effect by foliage application, Q: false cleavers” value [20, 32]?
A: The value was 4 (Herbicidal rate of 70% or more and less than 90%).

Q: And the “P: chickweed, herbicidal effect grade” value [21]?
A: The value was 3 (Herbicidal rate of 40% or more and less than 70%).

Q: What about the “herbicidal effect on rice flat sedge (E)” value [22] of the same compound?
A: The value was 5 (Herbicidal rate of 90% or more (almost completely withered)).

Q: What about the “Herbicidal effect by foliage application, F: southern crabgrass” value [23, 32] of the same compound?
A: The value was 3 (Herbicidal rate of 40% or more and less than 70%).

Q: And the “H: barnyard grass, herbicidal effect grade” value [24]?
A: The value was 2 (Herbicidal rate of 20% or more and less than 40%).

Q: What about the “M: velvetleaf, herbicidal effect grade” value [25] of the same compound?
A: Its value is 4 (Herbicidal rate of 70% or more and less than 90%).

Q: What about the “Herbicidal effect by foliage application, J: blackgrass” value [26, 32] of the same compound?
A: The value was 0 (Herbicidal rate of 5% or less (almost no effect)).

Q: And the “Herbicidal effect by foliage application, O: lambsquarters” value [27]?
A: Its value is 5 (Herbicidal rate of 90% or more (almost completely withered)).

Q: What about the “Herbicidal effect by foliage application, G: green foxtail” value [28, 32] of the same compound?
A: The value was 2 (Herbicidal rate of 20% or more and less than 40%).

Q: For `COc1cc2sc(-c3ccccc3)c(-c3c(O)c(C)nn(C)c3=O)c2cc1OC` [5-055], which “herbicidal effect on barnyard grass (H)” value [4] is on record?
A: The value was 1 (Herbicidal rate of 5% or more and less than 20%).

Q: And the “herbicidal effect on velvetleaf (M)” value [5, 33]?
A: The value was 2 (Herbicidal rate of 20% or more and less than 40%).

Q: What about the “herbicidal effect on windgrass (L)” value [9, 33] of the same compound?
A: Its value is 0 (Herbicidal rate of 5% or less (almost no effect)).

Q: And the “herbicidal effect on persian speedwell (R)” value [12, 33]?
A: Its value is 4 (Herbicidal rate of 70% or more and less than 90%).

Q: What about the “herbicidal effect on wild oat (I)” value [14, 33] of the same compound?
A: Its value is 0 (Herbicidal rate of 5% or less (almost no effect)).

Q: And the “Herbicidal effect, A: late watergrass” value [29]?
A: Its value is 2 (Herbicidal rate of 20% or more and less than 40%).

Q: What about the “herbicidal effect on Chinese sprangletop (D)” value [15] of the same compound?
A: The value was 0 (Herbicidal rate of 5% or less (almost no effect)).

Q: What about the “herbicidal effect on Italian ryegrass (K)” value [17, 33] of the same compound?
A: The value was 4 (Herbicidal rate of 70% or more and less than 90%).

Q: What about the “herbicidal effect on barnyard grass (H)” value [18, 33] of the same compound?
A: Its value is 0 (Herbicidal rate of 5% or less (almost no effect)).

Q: And the “Herbicidal effect, C: oval-leafed pondweed” value [30]?
A: Its value is 0 (Herbicidal rate of 5% or less (almost no effect)).

Q: And the “herbicidal effect on false cleavers (Q)” value [20, 33]?
A: The value was 0 (Herbicidal rate of 5% or less (almost no effect)).

Q: And the “herbicidal effect on rice flat sedge (E)” value [22]?
A: Its value is 3 (Herbicidal rate of 40% or more and less than 70%).

Q: What about the “herbicidal effect on southern crabgrass (F)” value [23, 33] of the same compound?
A: Its value is 0 (Herbicidal rate of 5% or less (almost no effect)).

Q: What about the “Herbicidal effect, B: Japanese bulrush” value [31] of the same compound?
A: Its value is 0 (Herbicidal rate of 5% or less (almost no effect)).

Q: What about the “herbicidal effect on blackgrass (J)” value [26, 33] of the same compound?
A: The value was 0 (Herbicidal rate of 5% or less (almost no effect)).

Q: And the “herbicidal effect on green foxtail (G)” value [28, 33]?
A: The value was 0 (Herbicidal rate of 5% or less (almost no effect)).
